The source of these data is the Deep4Chem optical property database.

SMILES strings stand for the structures.

This data set in a line: solvent given as SMILES.

Consider `CN(C)c1ccc(/C=C/c2nc3c4ccccc4c4ccccc4c3[nH]2)cc1`, for which the absorption maximum by setting is: (in C1CCOC1) 390 nm; (in C1COCCO1) 389 nm; (in CC1CCCCC1) 386 nm; (in CC#N) 389 nm; (in CCOC(C)=O) 387 nm; (in CCOCC) 386 nm. This compound also had an absorption maximum (in CN(C)C=O) of 392 nm; an absorption maximum (in COC(C)=O) of 389 nm; an absorption maximum (in CS(C)=O) of 396 nm; an absorption maximum (in Cc1ccccc1) of 393 nm; an absorption maximum (in ClC(Cl)Cl) of 393 nm.

As to `Cc1cnc(NC(=O)C2=C(O)c3ccccc3S(=O)(=O)N2C)s1`, the absorption maximum runs as follows: (in C1COCCO1) 342 nm; (in CC#N) 340 nm; (in CCCCO) 350 nm; (in CCCO) 350 nm; (in CCO) 349 nm; (in CCOC(C)=O) 343 nm. Also, the absorption maximum (in CO) worked out at 346 nm.

In the case of `C[Si](C)(C)[Si](C)(C)c1ccc2cc3ccccc3cc2c1`, the absorption maximum (in C1CCCCC1) is 382.68 nm.

`CN(C)c1ccc(/C=C/c2cc(/C=C/c3ccc(N(C)C)cc3)nc(/C=C/c3ccc(C(F)(F)F)cc3)n2)cc1` gave an absorption maximum (in ClCCl) of 429 nm.

Compound `CCn1c(-c2ccc(-c3ccc4ccc5cccc6ccc3c4c56)cc2)c(-c2ccc3ccccc3c2)c(-c2ccc3ccccc3c2)c1-c1ccc(-c2ccc3ccc4cccc5ccc2c3c45)cc1` displayed an absorption maximum (in CCOC(C)=O) of 344 nm.

Compound `CN(C)c1ccc(-c2ccc(-c3cc(-c4ccccc4)c(-c4ccccc4)c(-c4ccccc4)c3-c3ccccc3)cc2)cc1` showed an absorption maximum (in ClC(Cl)Cl) of 323 nm.

Turning to `CCCC1(CCC)c2cc(-c3ccco3)ccc2-c2ccc(-c3ccco3)cc21`, for the setting “in C1CCCCC1”, the absorption maximum was 364 nm.

`COc1ccc(-n2nc(C#N)c(N3CCCC3)n2)cc1OC` yielded an absorption maximum (in CC#N) of 344 nm.

Consider `CCCCNc1ccc2n1[B-](F)(F)[N+]1=CC(/C=C/C(=O)OC(C)(C)C)=CC1=C2c1c(C)cc(C)cc1C`, for which the absorption maximum (in ClCCl) was 499 nm.

Take `O=C1c2ccc3c4ccc5c6c(ccc(c7ccc(c2c37)C(=O)N1c1ccc(Cl)cc1)c64)C(=O)N(c1ccc(Cl)cc1)C5=O`: the absorption maximum (in CN(C)C=O) is 525 nm.

For the setting “in ClCCl”, `COc1ccc(C2=C3C(/C=C/c4cc(OC)c(OC)c(OC)c4)=C(C=O)C(C)=[N+]3[B-](F)(F)n3c(/C=C/c4cc(OC)c(OC)c(OC)c4)c(C=O)c(C=Cc4cc(OC)c(OC)c(OC)c4)c32)cc1` had an absorption maximum of 634 nm.

Regarding `F[B-]1(F)n2c(Nc3cccc4cccnc34)ccc2C(c2ccccc2)=C2C=CC(Cl)=[N+]21`, the absorption maximum was 560 nm (in C1CCCCC1), 547 nm (in CC#N), 561 nm (in Cc1ccccc1) and 555 nm (in ClC(Cl)Cl).

`CCCCCCCCCCCCn1cccc1/C=C/c1ccc(/C=C/c2cccn2CCCCCCCCCCCC)cc1` had an absorption maximum (in Cc1ccccc1) of 398 nm.

For `c1ccc([B-]2(c3ccccc3)Oc3ccc4ccccc4c3-c3c4ccccc4cc[n+]32)cc1`, the absorption maximum (in Cc1ccccc1) is 427 nm.

For `N#C/C(=C\c1ccc(C#N)cc1)c1nc(-c2ccccc2)cs1`, the absorption maximum is, setting by setting: (in CC#N) 370 nm; (in CCO) 375 nm; (in CN(C)C=O) 376 nm; (in Cc1ccccc1) 380 nm; (in ClCCl) 375 nm.

With `CCN(CC)c1ccc(/C=C/C(=O)c2c(O)cc(C)oc2=O)cc1`, the absorption maximum reads like this: (in CC#N) 476 nm; (in CCCO) 468 nm; (in CCO) 488 nm; (in CCOC(C)=O) 472 nm; (in Cc1ccccc1) 471 nm; (in ClCCl) 480 nm.

`Cc1ccc(/C2=C3N=C(C(c4ccccc4)=C/3c3ccccc3)/C(c3ccc(C)cc3)=c3\[nH]/c(c(-c4ccccc4)c3-c3ccccc3)=C(/c3ccc(C)cc3)C3=N/C(=C(/c4ccc(C)cc4)c4[nH]c2c(-c2ccccc2)c4-c2ccccc2)C(c2ccccc2)=C3c2ccccc2)cc1` had an absorption maximum (in ClCCl) of 721 nm.

Consider `COc1ccc(/C=C/C(=O)c2ccccc2O)cc1OC`, for which the absorption maximum reads like this: (in C1CCOC1) 350 nm; (in C1COCCO1) 354 nm; (in CC#N) 352 nm; (in CCCO) 360 nm; (in CCO) 359 nm; (in CN(C)C=O) 362 nm. Moreover, the absorption maximum amounted to 357 nm (in CO), 365 nm (in CS(C)=O), 355 nm (in ClC(Cl)Cl) and 353 nm (in ClCCl).

Take `CC1=c2c3c4cccc5cccc(c=3c(C)[n+]2[B-](F)(F)n2c(C)c3cc6c(-c7ccccc7)c7c(c(-c8ccccc8)c6cc3c21)-c1cccc2cccc-7c12)c54`: where the note is “in ClCCl”, the absorption maximum was 658 nm.

Consider `CCn1c2ccccc2c2cc(/C=C/c3cc(/C=C/c4ccc5c(c4)c4ccccc4n5CC)nc(SC)n3)ccc21`, for which the absorption maximum came to 406 nm (in C1CCOC1); 402 nm (in CCOC(C)=O); 413 nm (in CN(C)C=O); 405 nm (in Cc1ccccc1); 409 nm (in ClCCl).

Compound `CC(=O)O[B-]1(OC(C)=O)OC(/C=C/c2cccc3ccccc23)=CC(/C=C/c2cccc3ccccc23)=[O+]1` registered an absorption maximum (in C1CCOC1) of 464 nm; an absorption maximum (in CC#N) of 468 nm; an absorption maximum (in CC(C)=O) of 464 nm; an absorption maximum (in CS(C)=O) of 478 nm; an absorption maximum (in Cc1ccccc1) of 468 nm; an absorption maximum (in ClC(Cl)Cl) of 474 nm. The absorption maximum (in ClCCl) is recorded as 472 nm.

`C(=C\c1ncc(-c2ccc(OCc3ccccc3)c(OCc3ccccc3)c2)o1)/c1cccc(N2CCN(c3ccccc3)CC2)c1` displayed an absorption maximum (in ClCCl) of 355 nm.

On to `Cc1ccc(-c2c3nc(c(-c4ccc(C)cc4)c4ccc([nH]4)c(-c4ccc(OC(=O)C(C)c5cccc(C(=O)c6ccccc6)c5)cc4)c4nc(c(-c5ccc(C)cc5)c5ccc2[nH]5)C=C4)C=C3)cc1` (stereo unspecified), for which, under “in ClCCl”, the absorption maximum is listed as 649 nm.

In the case of `CC/[NH+]=c1\cc2oc3cc(NCCC(=O)O)c4ccccc4c3nc-2cc1C`, the absorption maximum is recorded as 590 nm (in CCO) and 580 nm (in O).

`CN(C)c1ccc2c(c1)C(=O)c1ccccc1-2`: the absorption maximum runs as follows: (in C1CCCCC1) 484 nm; (in CC#N) 510 nm; (in CCO) 509 nm; (in c1ccccc1) 507 nm.

In turn, `O=C(c1sc(-c2ccc(-c3cc(-c4cccs4)c(C(=O)N4CCOCC4)s3)s2)cc1-c1cccs1)N1CCOCC1` gave an absorption maximum (in ClCCl) of 379 nm.

Turning to `CCCCOc1ccc(/C=C/C=C/C=C/c2ccc([N+](=O)[O-])cc2)cc1`, the absorption maximum is, setting by setting: (in CC1CCCCC1) 414 nm; (in CC#N) 413 nm; (in Cc1ccccc1) 420 nm; (in ClCCl) 421 nm.

Regarding `CS1(C)C(/C=C/C2=C(c3ccc(C(=O)O)cc3)C(=C/C=C3/N(CCCCS(=O)(=O)[O-])c4ccccc4S3(C)C)/CCC2)=[N+](CCCCS(=O)(=O)[O-])c2ccccc21`, for the setting “in CO”, the absorption maximum is on record as 800 nm.

`c1ccc(-c2nc(-c3ccccc3)nc(-n3c4ccccc4c4cc(-n5c6ccccc6c6ccccc65)cc(-n5c6ccccc6c6ccccc65)c43)n2)cc1` yielded an absorption maximum (in C1CCOC1) of 332.68 nm.

In turn, `C(=C\c1ccncn1)/c1ccc(-c2ccc(N(c3ccccc3)c3ccccc3)cc2)cc1` showed an absorption maximum (in C1CCOC1) of 381 nm, an absorption maximum (in CC#N) of 381 nm, an absorption maximum (in CCCCCCC) of 373 nm and an absorption maximum (in CS(C)=O) of 393 nm.

As to `CN(C)c1ccc2c3c(c(=O)oc2c1)C=c1cc2c(cc1O3)=[N+](CCC(=O)O)CCC2`, the absorption maximum is, setting by setting: (in CC#N) 593 nm; (in CO) 591 nm; (in ClCCl) 606 nm; (in O) 587 nm.

Turning to `COc1ccc(C2=C3C=c4c(oc5cc6c(cc45)[C@H]4CC[C@]5(C)C(=O)CC[C@H]5[C@@H]4CC6)=[N+]3[B-](F)(F)n3c2cc2c4cc5c(cc4oc23)CC[C@@H]2[C@@H]5CC[C@]3(C)C(=O)CC[C@@H]23)cc1`, the absorption maximum is, setting by setting: (in CCOC(C)=O) 596.5 nm; (in CCOCC) 596.5 nm; (in CO) 595.5 nm.

Regarding `CCCCCCOc1ccc(-c2ccc(/C=C/c3cc(/C=C/c4ccc(-c5ccc(OCCCCCC)cc5)cc4)ncn3)cc2)cc1`, the absorption maximum (in ClCCl) turned out to be 373 nm.

`Cc1nn(-c2ccccc2)c2c1c(=O)oc1ccc(-n3c4ccccc4c4cc(-n5c6ccccc6c6ccccc65)ccc43)cc12` came in with an absorption maximum (in Cc1ccccc1) of 342 nm.

Turning to `CCOC(=O)C1=C(N)n2c(=O)c3ccccc3c(=O)n2C1c1ccccc1` (stereo unspecified), the absorption maximum (in CS(C)=O) worked out at 364 nm.

With `c1cc2c3cc1c1ccc4c(c1)c1cc(ccc1[C@]15OCCO[C@]41OCCO5)c1ccc4c(c1)c1cc(ccc1[C@]15OCCO[C@]41OCCO5)c1ccc(c3c1)[C@]13OCCO[C@]21OCCO3`, the absorption maximum (in Cc1ccccc1) stood at 300 nm.

`CC1(C)c2ccccc2N(c2ccc3c(c2)c2ccccc2c2nc4ccccc4nc32)c2ccccc21` gave an absorption maximum (in Cc1ccccc1) of 382 nm.

With `O=C1O/C(=C\c2cccs2)c2ccccc21`, the absorption maximum (in CC#N) was 355 nm.

In turn, `CCCCn1c2ccc(C#N)cc2c2cc(C#N)cc(-c3ccc(N(c4ccccc4)c4ccccc4)cc3)c21` displayed an absorption maximum (in ClCCl) of 352 nm.

In turn, `N#Cc1cc(-n2c3ccccc3c3ccccc32)c(-n2c3ccccc3c3cc(Br)ccc32)cc1C#N` gave an absorption maximum (in C1CCOC1) of 366 nm.

On to `CC(=O)c1c2c(cc3c(N(C)C)cccc13)CCC2`, for which the absorption maximum reads like this: (in C1CCCCC1) 314 nm; (in C1CCOC1) 330 nm; (in C1COCCO1) 319 nm; (in CC#N) 316 nm; (in CCO) 334 nm; (in CS(C)=O) 334 nm. For the same compound, the absorption maximum amounted to 322 nm (in Cc1ccccc1), 334 nm (in ClC(Cl)Cl) and 334 nm (in ClCCl).
